Results on 31 molecules are retold here after US11028095B2, “Spiro-lactam and bis-spiro-lactam NMDA receptor modulators and uses thereof” (Aptinyx Inc., priority 2016, dated 2021).

What all share (format): biochemical
Test [1] has as its target T1, NMDAR2B expressing HEK cell membranes (Homo sapiens, UniProt Q13224).
T1 construct: expressed in transfected cells; host or cells: HEK cells (membrane extract)
Briefly: NMDAR agonist assay, [3H]MK-801 binding, NMDAR2B. To be noted: 50 μM glutamate; for EC50: [3H]MK-801 binding, read-out: NMDAR2B log EC50 (converted). Here is the method:
(§1) (nonequilibrium conditions).
(§2) The baseline value was determined from the best fit curve of the DPM values modeled using the GraphPad program and the log(agonist) vs. response(three parameters) algorithm was then subtracted from all points in the dataset.

Test [2] deals with T2, NMDAR2B expressing HEK cell membranes (Homo sapiens, UniProt Q05586+Q13224).
T2 construct: expressed in transfected cells; host or cells: HEK cells (membrane extract)
Briefly: NMDAR agonist assay, [3H]MK-801 binding, NMDAR2B. To be noted: for EC50: [3H]MK-801 binding; for Emax: relative to 1 mM glycine. Here is the method:
as §1, §2

In test [3] the target is T3, NMDAR2A expressing HEK cell membranes (Homo sapiens, UniProt Q05586+Q12879).
T3 construct: expressed in transfected cells; host or cells: HEK cells (membrane extract)
Nature of the test: NMDAR agonist assay, [3H]MK-801 binding, NMDAR2A. To be noted: for EC50: [3H]MK-801 binding; for Emax: relative to 1 mM glycine. On the procedure:
as §1, §2

The mark [4] stands for this setting: 50 μM glutamate, read-out: NMDAR2B log EC50 (converted).
Setting [5] is: 50 μM glutamate, read-out: NMDAR2A: log EC50 (converted).
Setting [6] is: 50 μM glutamate, read-out: NMDAR2A: % maximal [3H]MK-801 binding relative to 1 mM glycine.
The mark [7] stands for this setting: 50 μM glutamate, read-out: NMDAR2B: % maximal [3H]MK-801 binding relative to 1 mM glycine.
Where [8] appears, read: NMDAR2B: log EC50, 50 μM glutamate.
The mark [9] stands for this setting: read-out: NMDAR2B: % maximal [3H]MK-801 binding relative to 1 mM glycine, 50 μM glutamate.
Setting [10] is: NMDAR2A: log EC50, 50 μM glutamate.
The mark [11] stands for this setting: read-out: NMDAR2A: % maximal [3H]MK-801 binding relative to 1 mM glycine, 50 μM glutamate.

Where two headings read alike, the source gives them in different places. A value given as a limit tells only on which side of the number the result lay.

T1 sequence (Q13224 27-1484, other chains not shown): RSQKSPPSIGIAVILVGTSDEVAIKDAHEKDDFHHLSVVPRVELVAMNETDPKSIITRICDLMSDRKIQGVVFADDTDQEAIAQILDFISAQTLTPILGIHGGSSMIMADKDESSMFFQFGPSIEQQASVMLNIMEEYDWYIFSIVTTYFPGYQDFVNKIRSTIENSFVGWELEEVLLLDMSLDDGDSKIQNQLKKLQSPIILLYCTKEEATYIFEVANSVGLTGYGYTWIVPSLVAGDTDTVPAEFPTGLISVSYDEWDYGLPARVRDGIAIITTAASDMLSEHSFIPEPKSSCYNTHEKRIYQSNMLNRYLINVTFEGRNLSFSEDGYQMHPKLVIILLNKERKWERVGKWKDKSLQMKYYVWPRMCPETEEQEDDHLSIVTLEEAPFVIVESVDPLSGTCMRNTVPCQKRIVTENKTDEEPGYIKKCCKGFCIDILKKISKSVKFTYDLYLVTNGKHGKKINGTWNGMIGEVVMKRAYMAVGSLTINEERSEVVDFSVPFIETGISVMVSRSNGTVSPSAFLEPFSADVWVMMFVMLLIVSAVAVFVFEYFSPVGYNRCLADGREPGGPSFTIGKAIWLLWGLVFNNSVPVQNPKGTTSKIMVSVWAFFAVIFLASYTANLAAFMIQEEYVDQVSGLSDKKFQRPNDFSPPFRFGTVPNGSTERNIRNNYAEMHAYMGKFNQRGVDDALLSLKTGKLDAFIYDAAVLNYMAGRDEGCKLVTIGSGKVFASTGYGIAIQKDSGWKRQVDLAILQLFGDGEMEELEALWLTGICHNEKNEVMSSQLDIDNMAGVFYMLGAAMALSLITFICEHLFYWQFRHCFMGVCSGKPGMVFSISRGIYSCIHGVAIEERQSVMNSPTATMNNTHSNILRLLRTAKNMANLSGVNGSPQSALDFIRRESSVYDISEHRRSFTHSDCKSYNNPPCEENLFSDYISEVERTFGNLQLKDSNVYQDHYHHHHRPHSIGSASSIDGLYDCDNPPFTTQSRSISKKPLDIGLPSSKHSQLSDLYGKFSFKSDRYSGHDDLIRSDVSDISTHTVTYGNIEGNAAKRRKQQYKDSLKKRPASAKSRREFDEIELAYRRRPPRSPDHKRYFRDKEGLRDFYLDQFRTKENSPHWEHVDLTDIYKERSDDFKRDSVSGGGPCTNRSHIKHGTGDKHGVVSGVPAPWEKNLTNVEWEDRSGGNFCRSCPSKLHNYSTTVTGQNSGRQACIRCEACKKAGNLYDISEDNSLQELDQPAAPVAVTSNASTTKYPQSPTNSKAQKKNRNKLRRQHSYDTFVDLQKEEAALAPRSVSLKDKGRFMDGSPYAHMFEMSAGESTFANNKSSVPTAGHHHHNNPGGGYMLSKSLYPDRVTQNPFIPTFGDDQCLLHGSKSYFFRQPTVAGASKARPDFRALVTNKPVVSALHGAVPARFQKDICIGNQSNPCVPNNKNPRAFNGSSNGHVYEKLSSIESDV
T2 sequence (Q13224 27-1484, other chains not shown): as above
T3 sequence (Q12879 23-1464, other chains not shown): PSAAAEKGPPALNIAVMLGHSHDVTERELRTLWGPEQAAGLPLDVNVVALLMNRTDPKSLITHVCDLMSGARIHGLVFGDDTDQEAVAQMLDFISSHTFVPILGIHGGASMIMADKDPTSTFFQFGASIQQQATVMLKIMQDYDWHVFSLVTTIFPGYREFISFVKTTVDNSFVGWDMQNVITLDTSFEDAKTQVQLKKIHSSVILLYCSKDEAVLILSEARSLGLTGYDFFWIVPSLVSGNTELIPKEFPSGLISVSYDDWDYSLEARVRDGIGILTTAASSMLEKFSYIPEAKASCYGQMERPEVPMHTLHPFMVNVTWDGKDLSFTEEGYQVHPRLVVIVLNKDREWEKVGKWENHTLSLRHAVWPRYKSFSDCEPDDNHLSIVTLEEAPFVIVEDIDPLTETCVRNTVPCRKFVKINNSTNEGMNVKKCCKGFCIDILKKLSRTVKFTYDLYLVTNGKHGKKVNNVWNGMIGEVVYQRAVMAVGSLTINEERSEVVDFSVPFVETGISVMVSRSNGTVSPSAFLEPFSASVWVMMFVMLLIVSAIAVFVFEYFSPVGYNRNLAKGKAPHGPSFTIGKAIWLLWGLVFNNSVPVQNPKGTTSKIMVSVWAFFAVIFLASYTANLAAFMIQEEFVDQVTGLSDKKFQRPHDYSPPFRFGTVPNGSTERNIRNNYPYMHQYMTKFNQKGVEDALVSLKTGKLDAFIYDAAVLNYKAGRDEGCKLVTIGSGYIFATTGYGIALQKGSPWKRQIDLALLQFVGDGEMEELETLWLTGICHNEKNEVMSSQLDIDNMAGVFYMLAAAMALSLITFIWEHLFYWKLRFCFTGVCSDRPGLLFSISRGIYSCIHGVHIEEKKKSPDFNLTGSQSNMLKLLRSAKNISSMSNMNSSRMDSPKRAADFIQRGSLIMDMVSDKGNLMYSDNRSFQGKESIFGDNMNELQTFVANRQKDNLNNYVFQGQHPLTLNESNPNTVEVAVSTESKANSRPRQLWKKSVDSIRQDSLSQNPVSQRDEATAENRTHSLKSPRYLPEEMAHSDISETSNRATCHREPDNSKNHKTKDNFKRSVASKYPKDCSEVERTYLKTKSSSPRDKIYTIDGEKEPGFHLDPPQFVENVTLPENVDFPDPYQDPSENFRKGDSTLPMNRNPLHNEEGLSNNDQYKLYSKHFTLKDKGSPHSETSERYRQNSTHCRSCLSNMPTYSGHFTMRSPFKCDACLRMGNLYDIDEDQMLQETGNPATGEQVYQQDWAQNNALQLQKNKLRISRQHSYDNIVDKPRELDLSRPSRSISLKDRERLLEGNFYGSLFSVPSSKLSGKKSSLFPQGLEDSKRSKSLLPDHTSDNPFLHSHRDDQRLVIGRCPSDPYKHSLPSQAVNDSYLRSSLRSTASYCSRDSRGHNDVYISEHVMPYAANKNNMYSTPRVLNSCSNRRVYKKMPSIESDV

As for `CC(C)C(=O)N1C2(CCC13CNC3=O)CNC2=O` (single isomer, unassigned) [AG, 5-isobutyryl-2,5,8-triazadispiro[3.1.36.24]undecane-1,7-dione], the “NMDAR2B: % maximal [3H]MK-801 binding relative to 1 mM glycine” value in test [1] is “− (−=0)”. Further, the results for the EC50 in test [2] (setting [4]) and in test [3] (setting [5]) were greater than 100 nM and less than 1 nM, respectively. Further, in test [3] (setting [6]), the Emax is less than 100%.

Turning to `C[C@@H](O)[C@H](NC(=O)C1CCC2(CNC2=O)N1Cc1ccccc1)C(N)=O` (single isomer, unassigned) [AL-1], the “NMDAR2B: % maximal [3H]MK-801 binding relative to 1 mM glycine” value in test [1] is “− (−=0)”. Moreover, the EC50 (commonly the midpoint of the concentration-response curve) was greater than 100 nM in test [2] (setting [4]) and less than 1 nM in test [3] (setting [5]). For the same molecule, the Emax in test [3] (setting [6]) is less than 100%.

`C[C@@H](O)[C@H](NC(=O)C1CCC2(CNC2=O)N1C)C(N)=O` (single isomer, unassigned) [BC]: the EC50 in test [2] (setting [4]) was less than 1 nM. For the same molecule, the results for the Emax in test [2] (setting [7]) and in test [3] (setting [6]) were greater than 100% and less than 100%, respectively.

For the molecule `CNC(=O)[C@@H](NCC1CCC2(CN(OCc3ccccc3)C2=O)N1C(=O)OC(C)(C)C)[C@@H](C)O` (single isomer, unassigned) [BM], the EC50 in test [2] (setting [4]) and in test [3] (setting [5]) was greater than 100 nM each time. The Emax in test [2] (setting [7]) and in test [3] (setting [6]) was 0% throughout.

On to `COc1ccc(CN2CC3(CC(N[C@H](C(=O)O)[C@@H](C)O)CN3C(=O)OC(C)(C)C)C2=O)cc1` (single isomer, unassigned) [CE, (5-(tert-butoxycarbonyl)-2-(4-methoxybenzyl)-1-oxo-2,5-diazaspiro[3.4]octan-7-yl)-L-threonine], for which the figures for the EC50 in test [2] (setting [4]) and in test [3] (setting [5]) were less than 1 nM and greater than 100 nM, respectively. Besides, the Emax in test [2] (setting [7]) is greater than 100%; in test [3] (setting [6]), 0%.

In the case of `CC(O)C(NCC1CCC2(CNC2=O)N1)C(N)=O` (single isomer, unassigned) [CM], the EC50 in test [2] (setting [4]) and in test [3] (setting [5]) was less than 1 nM each time. The Emax in test [2] (setting [7]) and in test [3] (setting [6]) was less than 100% throughout.

With `CNC(=O)C(NCC1CCC2(CN(OCc3ccccc3)C2=O)N1)C(C)O` (single isomer, unassigned) [CO], the EC50 in test [2] (setting [4]) and in test [3] (setting [5]) was less than 1 nM in each case. The Emax in test [2] (setting [7]) and in test [3] (setting [6]) was less than 100% in each case.

On to `CNC(=O)C(C(C)O)N(C)CC1CCC2(CN(OCc3ccccc3)C2=O)N1` (single isomer, unassigned) [CW], for which the EC50 in test [2] (setting [4]) and in test [3] (setting [5]) was less than 1 nM each time. Also, the Emax in test [2] (setting [7]) and in test [3] (setting [6]) was less than 100% each time.

Turning to `NC(=O)C1CCC2(CN(OCc3ccccc3)C2=O)N1` (single isomer, unassigned) [CY, 2-(benzyloxy)-1-oxo-2,5-diazaspiro[3.4]octane-6-carboxamide], the 50% effective concentration (EC50) in test [2] (setting [4]) and in test [3] (setting [5]) was less than 1 nM each time. The Emax in test [2] (setting [7]) and in test [3] (setting [6]) was less than 100% throughout.

Consider `NC(=O)C1CCC2(CNC2=O)N1` (single isomer, unassigned) [DA, 1-oxo-2,5-diazaspiro[3.4]octane-6-carboxamide], for which the EC50 in test [2] (setting [4]) and in test [3] (setting [5]) was less than 1 nM in each case. The Emax in test [2] (setting [7]) and in test [3] (setting [6]) was less than 100% each time.

For `NC(=O)C1CCC2(CNC2=O)N1` (single isomer, unassigned) [DB, 1-oxo-2,5-diazaspiro[3.4]octane-6-carboxamide], in test [1], the EC50 is less than 1 nM.

With `CC(C)CN1C(C(N)=O)CCC12CNC2=O` (single isomer, unassigned) [DC, 5-isobutyl-1-oxo-2,5-diazaspiro[3.4]octane-6-carboxamide], the concentration giving a half-maximal response (EC50) in test [2] (setting [4]) and in test [3] (setting [5]) was less than 1 nM throughout. The Emax in test [2] (setting [7]) is greater than 100%; in test [3] (setting [6]), less than 100%.

For `NC(=O)C1CCC2(CNC2=O)N1Cc1ccccc1` (single isomer, unassigned) [DE, 5-benzyl-1-oxo-2,5-diazaspiro[3.4]octane-6-carboxamide], the EC50 in test [2] (setting [4]) and in test [3] (setting [5]) was less than 1 nM in each case. Moreover, the Emax in test [2] (setting [7]) and in test [3] (setting [6]) was less than 100% in each case.

Regarding `NC(=O)C1CCC2(CNC2=O)N1Cc1ccc(F)cc1` (single isomer, unassigned) [DG, 5-(4-fluorobenzyl)-1-oxo-2,5-diazaspiro[3.4]octane-6-carboxamide], the Emax in test [2] (setting [7]) and in test [3] (setting [6]) was less than 100% each time. Further, the EC50 in test [3] (setting [5]) was less than 1 nM.

As to `O=C1NCC12CCC1(CNC1=O)N2Cc1ccc(F)cc1` (single isomer, unassigned) [DI, 5-(4-fluorobenzyl)-2,5,8-triazadispiro[3.1.36.24]undecane-1,7-dione], the EC50 in test [2] (setting [4]) was less than 1 nM. The Emax in test [2] (setting [7]) and in test [3] (setting [6]) was less than 100% each time.

As to `O=C1NCC12CCC1(CNC1=O)N2Cc1ccc(F)cc1` (single isomer, unassigned) [DJ, 5-(4-fluorobenzyl)-2,5,8-triazadispiro[3.1.36.24]undecane-1,7-dione], the EC50 in test [1] and in test [3] (setting [5]) was less than 1 nM throughout.

With `CN1C2(CCC13CNC3=O)CNC2=O` (centres unmarked) [AB-3, 5-methyl-2,5,8-triazadispiro[3.1.36.24]undecane-1,7-dione], the EC50 in test [2] (setting [8]) and in test [3] (setting [10]) was greater than 100 nM throughout. Also, the Emax in test [2] (setting [9]) and in test [3] (setting [11]) was 0% each time.

In the case of `CC(C)CN1C2(CCC13CNC3=O)CNC2=O` (centres unmarked) [AE, 5-isobutyl-2,5,8-triazadispiro[3.1.36.24]undecane-1,7-dione], the EC50 in test [2] (setting [8]) and in test [3] (setting [10]) was greater than 100 nM in each case. Moreover, the Emax in test [2] (setting [9]) and in test [3] (setting [11]) was 0% throughout.

For the molecule `CC(C)C(=O)N1C[C@@H](C(N)=O)C[C@]12CNC2=O` [AT, (4R,7S)-5-isobutyryl-1-oxo-2,5-diazaspiro[3.4]octane-7-carboxamide], the EC50 in test [2] (setting [4]) was greater than 100 nM. Also, the Emax in test [2] (setting [7]) is 0%; in test [3] (setting [6]), less than 100%.

Turning to `C[C@@H](O)[C@H](NCC1CCC2(CN(OCc3ccccc3)C2=O)N1C(=O)OC(C)(C)C)C(N)=O` (some centres unmarked) [BI], the EC50 in test [2] (setting [4]) and in test [3] (setting [5]) was greater than 100 nM throughout. Further, the Emax in test [2] (setting [7]) and in test [3] (setting [6]) was 0% in each case.

As to `C[C@@H](O)[C@H](NCC1CCC2(CNC2=O)N1C(=O)OC(C)(C)C)C(N)=O` (some centres unmarked) [BK], the Emax is less than 100% in test [2] (setting [7]) and 0% in test [3] (setting [6]). The EC50 in test [3] (setting [5]) was greater than 100 nM.

`C[C@@H](O)[C@H](NCC1CCC2(CNC2=O)N1C(=O)OC(C)(C)C)C(N)=O` (some centres unmarked) [BL]: in test [2] (setting [4]), the half-maximal effective concentration (EC50) was less than 1 nM.

In the case of `CNC(=O)[C@@H](NCC1CCC2(CNC2=O)N1C(=O)OC(C)(C)C)[C@@H](C)O` (some centres unmarked) [BP], the EC50 in test [2] (setting [4]) and in test [3] (setting [5]) was greater than 100 nM throughout. In addition, the Emax in test [2] (setting [7]) and in test [3] (setting [6]) was 0% each time.

For `C[C@@H](O)[C@@H](C(N)=O)N(C)CC1CCC2(CN(OCc3ccccc3)C2=O)N1C(=O)OC(C)(C)C` (stereo partly drawn) [BU, tert-butyl 6-((((2S,3R)-1-amino-3-hydroxy-1-oxobutan-2-yl)(methyl)amino)methyl)-2-(benzyloxy)-1-oxo-2,5-diazaspiro[3.4]octane-5-carboxylate], the EC50 in test [2] (setting [4]) and in test [3] (setting [5]) was less than 1 nM in each case. The Emax in test [2] (setting [7]) and in test [3] (setting [6]) was less than 100% throughout.

Consider `C[C@@H](O)[C@@H](C(=O)N(C)C)N(C)CC1CCC2(CN(OCc3ccccc3)C2=O)N1C(=O)OC(C)(C)C` (some centres unmarked) [BW], for which the EC50 in test [2] (setting [4]) and in test [3] (setting [5]) was less than 1 nM each time. The figures for the Emax in test [2] (setting [7]) and in test [3] (setting [6]) were greater than 100% and less than 100%, respectively.

Consider `COc1ccc(CN2CC3(CC(N[C@H](C(N)=O)[C@@H](C)O)CN3C(=O)OC(C)(C)C)C2=O)cc1` (stereo partly drawn) [CA, tert-butyl 7-(((2S,3R)-1-amino-3-hydroxy-1-oxobutan-2-yl)amino)-2-(4-methoxybenzyl)-1-oxo-2,5-diazaspiro[3.4]octane-5-carboxylate], for which the EC50 in test [2] (setting [4]) and in test [3] (setting [5]) was greater than 100 nM in each case. Also, the Emax in test [2] (setting [7]) and in test [3] (setting [6]) was 0% each time.

For `COc1ccc(CN2CC3(CC(N[C@H](C(N)=O)[C@@H](C)O)CN3)C2=O)cc1` (some centres unmarked) [CC], in test [2] (setting [4]), the EC50 is greater than 100 nM. The Emax in test [2] (setting [7]) was 0%; in test [3] (setting [6]) it was less than 100%.

In the case of `COc1ccc(CN2CC3(CC(N[C@H](C(N)=O)[C@@H](C)O)CN3)C2=O)cc1` (some centres unmarked) [CD], in test [3] (setting [5]), the EC50 was less than 1 nM.

As for `COc1ccc(CN2CC3(CC(N[C@H](C(=O)O)[C@@H](C)O)CN3C(=O)OC(C)(C)C)C2=O)cc1` (stereo partly drawn) [CF, (5-(tert-butoxycarbonyl)-2-(4-methoxybenzyl)-1-oxo-2,5-diazaspiro[3.4]octan-7-yl)-L-threonine], the 50% effective concentration (EC50) is less than 1 nM in test [2] (setting [4]) and greater than 100 nM in test [3] (setting [5]). Moreover, the Emax is less than 100% in test [2] (setting [7]) and 0% in test [3] (setting [6]).

As to `COc1ccc(CN2C[C@@]3(C[C@H](C(N)=O)CN3CC(C)C)C2=O)cc1` [CI, (4S,7S)-5-isobutyl-2-(4-methoxybenzyl)-1-oxo-2,5-diazaspiro[3.4]octane-7-carboxamide], the EC50 in test [2] (setting [4]) was less than 1 nM. In addition, the Emax in test [2] (setting [7]) and in test [3] (setting [6]) was less than 100% in each case.

On to `COc1ccc(CN2CC3(C[C@H](C(N)=O)CN3CC(C)C)C2=O)cc1` (some centres unmarked) [CJ], for which the Emax in test [2] (setting [7]) and in test [3] (setting [6]) was less than 100% in each case.
